Source: paper PMC8143339, “PK/PD Modeling of the PDE7 Inhibitor—GRMS-55 in a Mouse Model of Autoimmune Hepatitis” (Pharmaceutics, 2021)

Legend:
PDE7A = conditions: in vitro assay; read-out: IC50 PDE7A; cited from earlier work
[1] = system: paw edema in collagen-induced arthritis; set-up: method as in PMID 31899535; conditions: rats with collagen-induced arthritis, PK/PD arthritis progression model; cited from earlier work
ConA-induced hepatitis = assay: Preliminary pharmacological evaluation in ConA-induced hepatitis; format: in vivo, BALB/c mice
Description: ConA was dissolved in sterile saline (2 mg·mL^−1). The studied compounds (GRMS-55, rolipram, and BRL-50481) were dissolved in a mixture of DMSO, PEG 400, and water for injection at a ratio of 25:25:50 (v/v/v). Mice were given an IP injection of the investigated compounds or the corresponding volume of vehicle alone and, thirty minutes later, intravenously (IV) administered with ConA solution. An additional control group received vehicle alone IP instead of the studied compounds followed by IV injection of sterile saline. ConA was given at a dose of 20 mg·kg^−1. Mice were exsanguinated at several time points post-ConA injection. Blood samples were allowed to clot for 0.5 h at room temperature and then centrifuged at 3000× g for 10 min to obtain the serum, which was stored at −20 °C until further analysis.
The influence of PDE inhibitors on the levels of inflammatory mediators and transaminases in ConA-treated mice was investigated in two separate experiments. In the preliminary study, the animals were pretreated IP with GRMS-55 at a dose of 50 mg·kg^−1, the PDE4-selective inhibitor rolipram at a dose of 10 mg·kg^−1, or the PDE7-selective inhibitor BRL-50481 at a dose of 50 mg·kg^−1. Doses of the investigated compounds were chosen based on the results of previous studies. Subsequently, mice were given an IV injection of ConA and sacrificed at 8 h following mitogen dosing. The levels of TNF-α, IL-6, and IFN-γ and the activities of ALT and AST in the mouse serum were measured. This preliminary experiment allowed comparing the activity of the studied PDE inhibitors in this AIH model and helped to select the doses of GRMS-55 for a subsequent pharmacodynamic study. In the final pharmacodynamic experiment, GRMS-55 was administered at two dose levels (50 and 100 mg·kg^−1) followed by ConA administration at a dose of 20 mg·kg^−1. Animals were sacrificed at various time points post-ConA dosing (1, 2, 4, 8 and 24 h). The levels of TNF-α, IL-1β, IL-4, IL-6, IL-10, IL-12, IL-17A, and IFN-γ were measured using a multiplex Luminex assay. In addition, the activities of ALT and AST in the mouse serum were assessed. The concentration–time profiles of the selected biomarkers obtained in this experiment combined with the results of pharmacokinetic analysis allowed the development of a semi-mechanistic PK/PD/disease progression model and the investigation of concentration–effect relationships of GRMS-55.
The serum samples from the preliminary pharmacological study were analyzed using ELISA tests according to the protocols provided by the manufacturers. The TNF-α concentrations were measured using the Mouse TNF-α Quantikine ELISA Kit (R&D Systems, Minneapolis, MN, USA), while the concentrations of IL-6 and IFN-gamma were quantified by ELISA kits manufactured by Cloud-Clone Corp. (Houston, TX, USA). The absorbance of samples was measured on a POLARstar Omega multi-mode microplate reader (BMG LABTECH, Ortenberg, Germany) set at 450 nm wavelength. TNF-α, IL-1β, IL-6, IL-4, IL-10, IL-12, IL-17A, and IFN-γ serum levels in samples from pharmacodynamic experiment were determined by a premixed Magnetic Luminex Assay (R&D Systems, Inc., Minneapolis, MN, USA) according to the manufacturer’s protocol. Serum AST and ALT activities were quantified on a chemistry analyzer BS-800 (Shenzhen Mindray Bio-medical Electronics Co., Ltd., Shenzhen, China).

TNF-α production = system: TNF-α production; set-up: method as in PMID 31899535; conditions: rat lipopolysaccharide-induced endotoxemia, PK/PD model; cited from earlier work
PDE4B = conditions: in vitro assay; read-out: IC50 PDE4B; cited from earlier work
[2] = 8 h after ConA 20 mg/kg IV, IP pretreatment: rolipram 10, BRL-50481 50, GRMS-55 50 mg/kg, vs vehicle control

Row | SMILES | IC50 (PDE7A) | IC50, decrease of paw edema [1] | decrease of IFN-γ level compared to control group (ConA-induced hepatitis; 10 mg/kg IP, 8 h after ConA) | decrease of IL-6 level compared to control group (ConA-induced hepatitis; 10 mg/kg IP, 8 h after ConA) | reduction of ALT activity compared to vehicle-treated control group (ConA-induced hepatitis; 10 mg/kg IP, 8 h after ConA) | reduction of AST activity compared to vehicle-treated control group (ConA-induced hepatitis; 10 mg/kg IP, 8 h after ConA) | IC50, suppression of TNF-α production (TNF-α production) | IC50 (PDE4B) | effect on activities of transaminases (ConA-induced hepatitis; 50 mg/kg IP, 8 h after ConA) | effect on serum IFN-γ concentration (ConA-induced hepatitis; [2]) | effect on serum IL-6 concentration (ConA-induced hepatitis; [2]) | effect on serum TNF-α concentration (ConA-induced hepatitis; [2])
1 | COc1ccc(C2CNC(=O)C2)cc1OC1CCCC1 (stereo not shown) [Rolipram] | > 200 µM | 0.01 µg/mL | approximately 5.0 times | ~3.8 times | approximately 18.2 times | ~6.1 times | 0.36 µg/mL | – | – | – | – | –
2 | Cc1ccc([N+](=O)[O-])cc1S(=O)(=O)N(C)C [BRL-50481] | 2.1 µM | – | – | – | – | – | – | > 200 µM | reduced | decreased | no effect | decreased
